Measurements taken from publication PMC4079326 (Journal of Medicinal Chemistry, 2014).

Tests used:
[1] = target: T1, CTX-M-9 (Escherichia coli, UniProt Q9L5C8); conditions: read-out: affinity toward CTX-M-9 (Ki); cited from earlier work
[2] = target: T1, CTX-M-9; type: biochemical; conditions: class A
[3] = target: TEM-1 (Escherichia coli, UniProt P62593); type: biochemical
[4] = data not shown
[5] = target: TEM-30 R244S (Escherichia coli, UniProt P62593, R241S); type: biochemical; conditions: 4 vs 5 on TEM-30
[6] = target: AmpC (Escherichia coli, UniProt P00811); type: biochemical

O=C(Cc1cccs1)N[C@H](B(O)O)c1cccc(C(=O)O)c1 [SMS2, (1R)-1-(2-thienylacetylamino)-1-(3-carboxyphenyl)methylboronic acid]
Ki [1]: 578 nM

O=C(O)/C=C/c1c(B(O)O)sc2ccccc12 [Compound 5, 3-(2-carboxyvinyl)benzo(b)thiophene-2-boronic acid]
gain in affinity vs CTX with respect to starting lead 1 [2]: 1250 fold | gain in affinity vs TEM-1 with respect to starting lead 1 ([3]; class A): 1250 fold | improvement of binding energy vs TEM-1 ([3]; moving from 1 to 5): 2.8 kcal/mol | stability in microbiology assay conditions over time [4]: unstable

CC(=O)/C=C/c1c(B(O)O)sc2ccccc12 [Compound 4]
change of binding vs TEM-30 with respect to compound 5 [5]: less than 1 fold | times less active vs class A [3]: 125 times | times less active vs AmpC [6]: 8 times
